{"source": "patent US9511111B2", "about": "“Methods for the treatment of X-linked hypophosphatemia and related disorders” (WISCONSIN ALUMNI RESEARCH FOUNDATION, priority 2010, dated 2016)", "key": {"[1]": {"test_system": "MOB cells (hTert osteoblasts)", "experiment": "mRNA expression in MOB cell line treated with D6R", "format": "cell-based", "procedure": "(§1) The dose-dependent effects of D6R (0-200 μM) on SPC2 activity in hTert osteoblasts (MOB) and MC3T3 osteoblasts in culture were also examined. […] Treatment of MC3T3 cells for a similar period likewise increased enzyme activity at 200 μM (124±14 vs 171±7 fluorescent units/min; p<0.05). Treatment of the MOB cell line with D6R, and the resulting increase in SPC2 enzyme activity decreased Fgf23 mRNA expression (1.0±0.7 vs 0.2±0.1 fold; p<0.001)."}, "hyp-mice": {"test_system": "hyp-mice", "experiment": "In vivo daily ip injection of D6R in hyp mice (murine model of XLH)", "set-up": "species or system mouse", "procedure": "In vivo injection of D6R in normal and hyp mice: 3-week old normal and hyp mice were randomly separated into two groups for each strain. One group of mice received daily ip injection of saline. […] Blood samples were obtained every 3 days via retro-orbital bleedings. At the end of the in vivo injection period, the animals were euthanized with an overdose of sodium pentobarbital (65 mg/kg). The final blood sample was collected by cardiac puncture for large volume of serum preparation. Kidney and femoral bone samples were collected for total RNA and protein extractions.\n(§2) Biochemistry measurements: Serum Pi levels were measured using Phosphorus Liqui-UV kit from Stanbio Laboratory (Boerne, Tex.). Serum Ca levels were measured using calcium Liquicolor kit from Stanbio following the manufacturer's protocols. Serum intact FGF-23 was measured employing a FGF-23 ELISA kit obtained from Kainos Laboratories, Japan. Serum C-terminal FGF-23 was measured using ELISA kit from Immunotopics, CA.\nReal-time RT-PCR for mRNA expression: Total RNA was isolated from kidney samples and femurs. The femurs were trimmed of all fat, homogenized into fine powder in liquid nitrogen using porcelain motor and pestle. Total RNA was then extracted using TRIzol Reagent (Invitrogen, CA) following the manufacturer's protocol. Kidney samples were rinsed free of blood using ice-cold PBS buffer. Then the kidney was homogenized in TRIzol Reagent using mortor and pestle. Then, the renal total RNA was isolated following the manufacturer's protocol. RT reactions were performed using Bio-Rad iScript cDNA synthesis kit (Bio-Rad, CA) with poly-A primers. FGF-23 mRNA, as well as Npt2 mRNA and 25(OH)D3-1α-hydroxylase mRNA were quantitated by real-time PCR using gene specific primers.\nWestern blot for protein expression: Kidney proteins were isolated using sucrose buffer containing 20 mM HEPES, 1 mM EDTA, 255 mM sucrose, 0.4 mM phenylmethylsulfonyl fluoride, and 2 μg/ml leupeptin. The homogenate was centrifuged at 1,500 g for 15 min, and the pellet containing mitochondrial protein, including 25(OH)D-1α-hydroxylase, was re-suspended in the same buffer, aliquoted, and stored at −80° C. until use. The supernatant that contained the plasma membrane protein obtained after centrifugation was also collected for the measurement of Npt2 protein. Bone samples were homogenized into fine powder in liquid nitrogen. Protein contents were isolated using T-PER tissue protein extraction reagent with Halt protease inhibitor cocktail (Thermo Scientific, Rockford, Ill.).\nA 20 μg aliquot of the respective protein extracts was electrophoresed in 10% SDS-PAGE gel and transferred onto a nitrocellulose membrane. The membrane was then washed and probed with specific antibodies and subsequently with specific secondary antibodies conjugated with HRP. To quantitate the immunoblotting signal, 6 ml of chemiluminescence detection solution (ECL plus, Amersham, UK) was added, and the signal was detected directly by the fluorescent scanner (Storm 860, Amersham, UK). Band density was analyzed using ImageQuant 5.2 software (Molecular Dynamics, Sunnyvale, Calif.). The antibody was then removed by incubating the membrane in reprobing solution (62.5 mM Tris-HCl, 2% SDS, and 100 mM 2-mercaptoethanol, pH 6.7) for 30 min, 50° C. The membrane was then blocked and probed with specific anti-β-actin antibody to verify the loading equivalence among samples.\nHigh-resolution radiography (x-ray) for the femus: mouse femurs were extracted and incubated in lysis buffer (2×SSC, 0.2% SDS, 10 mM EDTA, 10 mg/ml proteinase K) for 2 days. After the surrounding muscles were digested, the femurs were washed in PBS buffer and X-rayed on a Faxitron model MX-20 Specimen Radiography System with a digital camera attached (Faxitron x-ray Corp., Buffalo Grove, Ill.). […]"}, "normal mice": {"test_system": "normal mice", "experiment": "In vivo daily ip injection of D6R in normal mice", "set-up": "species or system mouse", "details": "D6R treated, daily ip for 5 weeks, saline 200 ± 15.5, p<0.001", "procedure": "In vivo injection of D6R in normal and hyp mice: 3-week old normal and hyp mice were randomly separated into two groups for each strain. One group of mice received daily ip injection of saline. The other group of mice received daily ip injection of D6R 1.5 μg/kg/day for 5 weeks. Blood samples were obtained every 3 days via retro-orbital bleedings. At the end of the in vivo injection period, the animals were euthanized with an overdose of sodium pentobarbital (65 mg/kg). The final blood sample was collected by cardiac puncture for large volume of serum preparation. Kidney and femoral bone samples were collected for total RNA and protein extractions.\nas §2"}, "SPC2 [2]": {"test_system": "SPC2", "experiment": "SPC2 activity in hTert osteoblasts (MOB) in culture", "format": "cell-based", "details": "D6R 50 μM, p<0.01", "procedure": "as §1"}, "SPC2 [3]": {"test_system": "SPC2", "experiment": "SPC2 activity in MC3T3 osteoblasts in culture", "format": "cell-based", "details": "MC3T3 cells, D6R 200 μM, similar period (48 hours); control 124±14; p<0.05", "procedure": "as §1"}}, "note": "“Also recorded” adds a separate entry of the source."}
{"substance": "hexa-D-arginine [D6R]", "values": [{"measurement": "Fgf23 mRNA expression", "setting": "[1]; MOB cell line treated with D6R, control 1.0±0.7, p<0.001", "result": "0.2±0.1", "unit": "fold"}, {"measurement": "SPC2 mRNA expression", "setting": "[1]; MOB cells treated with D6R", "result": "without alteration"}, {"measurement": "7B2 mRNA expression", "setting": "[1]; MOB cells treated with D6R, control 1.0±0.2, p<0.001", "result": "3.6±0.4", "unit": "fold"}, {"measurement": "mineral apposition rate", "setting": "hyp-mice; D6R treated hyp-mice, FIGS. 12-13", "result": "normalization; also recorded: restoration of normal bone mineral apposition rate"}, {"measurement": "serum FGF23 concentration", "setting": "hyp-mice; Hyp-mice, D6R treated, daily ip for 5 weeks, saline 2126 ± 281, p<0.001", "result": "1682 ± 191"}, {"measurement": "bone modeling (long bone circumference)", "setting": "hyp-mice; hyp mouse", "result": "decreased to normal"}, {"measurement": "length of the long bones in the extremities", "setting": "hyp-mice; hyp mouse", "result": "increased"}, {"measurement": "renal 25(OH)D3-1α-hydroxylase activity (translational abnormality)", "setting": "hyp-mice; hyp mouse", "result": "normalized"}, {"measurement": "degradation of serum FGF23", "setting": "hyp-mice; hyp mouse, D6R treatment, FIG. 3B", "result": "increased"}, {"measurement": "degradation of intact FGF23 in hyp-mouse bone", "setting": "hyp-mice; hyp mouse, ip x 5 weeks", "result": "enhanced"}, {"measurement": "Fgf23 mRNA expression", "setting": "hyp-mice; hyp mouse, ip x 5 weeks, FIG. 3A", "result": "decreased"}, {"measurement": "Npt2a mRNA", "setting": "hyp-mice; hyp mouse, kidney, FIGS. 2A-B", "result": "normalization"}, {"measurement": "renal phosphate wasting and serum phosphorus levels", "setting": "hyp-mice; hyp mouse, FIG. 1", "result": "normalization"}, {"measurement": "Sost mRNA and the coded protein Sclerostin", "setting": "hyp-mice; hyp mouse, FIG. 4", "result": "suppression"}, {"measurement": "bone 7B2 mRNA expression", "setting": "hyp-mice; hyp mouse, FIG. 5", "result": "stimulation"}, {"measurement": "bone density normalization", "setting": "hyp-mice; hyp mouse, FIG. 9", "result": "increasing"}, {"measurement": "Osteoid surface/Bone surface (OS/BS)", "setting": "hyp-mice; hyp mouse, FIG. 11A", "result": "decreasing"}, {"measurement": "Mineralized area/Total Area (MA/TA ratios)", "setting": "hyp-mice; hyp mouse, FIG. 11B", "result": "enhancing"}, {"measurement": "rickets and osteomalacia", "setting": "hyp-mice; hyp mouse, FIGS. 6-13", "result": "cured"}, {"measurement": "serum FGF23 concentration", "setting": "normal mice", "result": "120 ± 12.5"}, {"measurement": "SPC2 activity, h-Tert osteoblasts", "setting": "SPC2 [2]; control 121 ± 18", "result": "329 ± 17", "unit": "fluorescent units"}, {"measurement": "SPC2 activity", "setting": "SPC2 [2]; hTert osteoblasts, 48 hours, control 121±18", "result": "329±17", "unit": "fluorescent units/min"}, {"measurement": "SPC2 enzyme activity", "setting": "SPC2 [3]", "result": "171±7", "unit": "fluorescent units/min"}]}
